pIC50: −log10 of the molar value. Values joined by “and” are separate entries in the source; they are usually repeats but may differ in a detail not shown here. Equal values may be shown once.
Tests used:
Format in all cases: biochemical
[1] = target: T1, human MMP-1 (amino acids 100-262) (Homo sapiens, UniProt P03956); experiment: MMP dose response assay for determining IC50, MMP-1; conditions: recombinant catalytic domain, fluorescent-quench substrate 100 nM
T1 construct: human MMP-1 (amino acids 100-262); made in house
T1 sequence (P03956 100-262): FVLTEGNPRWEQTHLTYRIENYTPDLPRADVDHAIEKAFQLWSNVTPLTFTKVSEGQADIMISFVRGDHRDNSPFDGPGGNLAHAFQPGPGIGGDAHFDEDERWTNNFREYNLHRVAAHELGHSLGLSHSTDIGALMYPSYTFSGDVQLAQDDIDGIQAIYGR
Experimental: (§1) MMP Dose Response Assay for Determining IC50
(§2) The following method was used for determining IC50 values of different inhibitor compounds against multiple MMP enzymes. Frozen stocks of recombinantly produced MMPs were prepared in assay buffer (50 mM HEPES pH 7.4, 10 mM CaCl2, 0.05% Brij-35). […] Enzyme concentrations in the assay were determined empirically and set such that proteolytic activity was maintained in a linear range over the time-course of the experiment. […] Each concentration for each test compound was tested in triplicate. MMP enzymes were equilibrated with compounds for 1 hour at room temperature, then a fluorescent-quench substrate (Acetyl-Cys(Eu)-Pro-Leu-Gly-Leu-Lys-(QSY7)-Ala-Arg-amide) was added to a final concentration of 100 nM. […] Data was analyzed by first calculating average background value from wells that contained only substrate, and this value was subtracted from the entire plate. The 100%, or maximum value, was determined by averaging control wells that contained enzyme, substrate and DMSO. For each well, the percent of control was calculated by dividing the well value by the average DMSO value obtained above.

[2] = target: T2, human MMP-2 (amino acids 1-660) (Homo sapiens, UniProt P08253); experiment: MMP dose response assay for determining IC50, MMP-2; conditions: recombinant enzyme, fluorescent-quench substrate 100 nM; read-out: MMP-2
T2 construct: human MMP-2 (amino acids 1-660); made in house
T2 sequence (P08253 110-660): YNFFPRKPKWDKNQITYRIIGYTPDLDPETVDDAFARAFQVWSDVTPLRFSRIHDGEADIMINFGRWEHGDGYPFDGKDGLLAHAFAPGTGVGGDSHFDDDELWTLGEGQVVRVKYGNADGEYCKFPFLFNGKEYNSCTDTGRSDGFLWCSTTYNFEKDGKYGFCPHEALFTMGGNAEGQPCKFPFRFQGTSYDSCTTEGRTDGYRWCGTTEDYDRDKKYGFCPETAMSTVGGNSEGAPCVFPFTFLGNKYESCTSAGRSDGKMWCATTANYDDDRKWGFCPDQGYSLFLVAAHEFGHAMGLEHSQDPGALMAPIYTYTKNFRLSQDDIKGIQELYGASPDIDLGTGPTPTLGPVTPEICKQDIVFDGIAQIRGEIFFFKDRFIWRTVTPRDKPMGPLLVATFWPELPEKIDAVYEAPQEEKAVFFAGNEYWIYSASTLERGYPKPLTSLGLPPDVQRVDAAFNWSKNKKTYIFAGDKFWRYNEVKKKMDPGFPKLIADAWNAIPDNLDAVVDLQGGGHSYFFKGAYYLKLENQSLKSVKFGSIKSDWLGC
Experimental: as §1, §2

[3] = target: T3, human MMP-9 (amino acids 107-446) (Homo sapiens, UniProt P14780); experiment: MMP dose response assay for determining IC50, MMP-9; conditions: recombinant enzyme, fluorescent-quench substrate 100 nM; read-out: MMP-9
T3 construct: human MMP-9 (amino acids 107-446); made in house
T3 sequence (P14780 107-446): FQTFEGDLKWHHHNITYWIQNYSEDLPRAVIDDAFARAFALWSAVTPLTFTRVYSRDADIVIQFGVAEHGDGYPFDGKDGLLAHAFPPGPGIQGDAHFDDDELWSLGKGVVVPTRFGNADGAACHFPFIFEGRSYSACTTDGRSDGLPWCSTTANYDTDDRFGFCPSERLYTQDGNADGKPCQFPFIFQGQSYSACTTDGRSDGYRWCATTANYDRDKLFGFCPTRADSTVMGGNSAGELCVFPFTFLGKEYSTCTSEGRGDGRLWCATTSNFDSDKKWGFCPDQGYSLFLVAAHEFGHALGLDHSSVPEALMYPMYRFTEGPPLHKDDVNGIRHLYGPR
Experimental: as §1, §2

pIC50 [1] | pIC50 [2] | pIC50 [3] | SMILES
< 5.00 | 7.41 | 7.43 | CS(=O)(=O)N(C[C@@H](C(=O)NO)N1CCC(O)(c2ccc(Br)cc2)CC1)c1ccc(Oc2ccc(C(F)(F)F)cc2)cc1 [Example 79, N-Hydroxy (2S)-2-[4-(4-bromophenyl)-4-hydroxypiperidin-1-yl]-3-{N-[4-(4-trifluoromethylphenoxy)phenyl],N-methanesulfonylamino}propionamide]
< 5.00 | 6.55 | 7.17 | CC(C)N(Cc1ccccc1)[C@@H](CN(c1ccc(Oc2ccc(C(F)(F)F)cc2)cc1)S(C)(=O)=O)C(=O)NO [Example 69, N-Hydroxy (2S)-2-[N-benzyl-N-(2-propyl)amino]-3-{N-[4-(4-trifluoromethylphenoxy)phenyl],N-methanesulfonylamino}propionamide]
< 5.00 | 8.07 | 8.32 | CC(=O)N1CCN([C@@H](CN(c2ccc(Oc3ccc(C(F)(F)F)cc3)cc2)S(C)(=O)=O)C(=O)NO)CC1 [Example 84, N-Hydroxy (2S)-2-(4-acetylpiperazin-1-yl)-3-{N-[4-(4-trifluoromethylphenoxy)phenyl],N-methanesulfonylamino}propionamide]
5.22 and < 5.00 | 5.84 and 6.06 | 7.06 and 7.03 | Cc1ccc(Oc2ccc(N(C[C@H](Nc3ccc4ccccc4c3)C(=O)NO)S(C)(=O)=O)cc2)cc1 [Example 60, N-Hydroxy (2S)-3-{N-[4-(4-methylphenoxy)phenyl],N-methanesulfonylamino}-2-(naphthylen-2-yl)aminopropionamide]
5.22 | 6.17 | 7.23 | Cc1ccc(Oc2ccc(N(C[C@H](Nc3cccc(C(F)(F)F)c3)C(=O)NO)S(C)(=O)=O)cc2)cc1 [Example 45, N-Hydroxy (2S)-3-{N-[4-(4-methylphenoxy)phenyl],N-methanesulfonylamino}-2-(3-trifluorormethylphenyl)aminopropionamide]
< 5.00 | 8.33 and 8.30 and 7.80 | 8.72 and 8.82 and 8.20 | CS(=O)(=O)N(C[C@@H](C(=O)NO)N1CCS(=O)(=O)CC1)c1ccc(Oc2ccc(C(F)(F)F)cc2)cc1 [Example 70, N-Hydroxy (2S)-2-[1,1-bis(oxo)thiomorpholin-4-yl]-3-{N-[4-(4-trifluoromethylphenoxy)phenyl],N-methanesulfonylamino}propionamide]
< 5.00 | 7.85 | 8.50 | COC[C@H]1CCCN1[C@@H](CN(c1ccc(Oc2ccc(C(F)(F)F)cc2)cc1)S(C)(=O)=O)C(=O)NO [Example 81, N-Hydroxy (2S)-2-[(2R)-2-methoxymethylpyrrolidin-1-yl]-3-{N-[4-(4-trifluoromethylphenoxy)phenyl],N-methanesulfonylamino}propionamide]
< 5.00 | 7.70 | 8.10 | CS(=O)(=O)N(C[C@@H](C(=O)NO)N1CCNC(=O)C1)c1ccc(Oc2ccc(C(F)(F)F)cc2)cc1 [Example 87, N-Hydroxy (2S)-2-(3-oxopiperazin-1-yl)-3-{N-[4-(4-trifluoromethylphenoxy)phenyl],N-methanesulfonylamino}propionamide]
< 5.00 | 6.99 | 6.11 | CS(=O)(=O)N(C[C@H](O)C(=O)NO)c1ccc(C#Cc2cccs2)cc1 [Example 64, N-Hydroxy (2S)-2-hydroxy-3-{N-[4-(4-thiophen-2-ylacetylene)phenyl],N-methanesulfonylamino}propionamide]
< 5.00 | 6.58 | 7.54 | CC(C)N(CCNC(=O)OCc1ccccc1)[C@@H](CN(c1ccc(Oc2ccc(C(F)(F)F)cc2)cc1)S(C)(=O)=O)C(=O)NO [Example 68]

The next lines start with the molecule.

SMILES | pIC50 [1] | pIC50 [2] | pIC50 [3]
Cc1ccc(Oc2ccc(N(C[C@H](NC(=O)C(C)C)C(=O)NO)S(C)(=O)=O)cc2)cc1 [Example 4, N-Hydroxy (2S)-3-{N-[4-(4-methylphenoxy)phenyl],N-methanesulfonylamino}-2-(2-propylcarbonylamino)propionamide] | < 5.00 | 7.28 and 7.06 | 8.31 and 8.22
Cc1ccc(Oc2ccc(N(C[C@H](NCC(C)C)C(=O)NO)S(C)(=O)=O)cc2)cc1 [Example 36, N-Hydroxy (2S)-3-{N-[4-(4-methylphenoxy)phenyl],N-methanesulfonylamino}-2-(2-methylpropyl)aminopropionamide] | 5.04 | 7.94 | 8.90
Cc1ccc(Oc2ccc(N(C[C@H](NCc3ccncc3)C(=O)NO)S(C)(=O)=O)cc2)cc1 [Example 33, N-Hydroxy (2S)-3-{N-[4-(4-methylphenoxy)phenyl],N-methanesulfonylamino}-2-(pyridine-4-yl)methylaminopropionamide] | < 5.00 | 8.02 | 8.75
Cc1ccc(Oc2ccc(N(C[C@H](C(=O)NO)N3CCOCC3)S(C)(=O)=O)cc2)cc1 [Example 28, N-Hydroxy (2R)-3-{N-[4-(4-methylphenoxy)phenyl],N-methanesulfonylamino}-2-(morpholin-4-yl)propionamide] | < 5.00 | 5.88 | 6.53
Cc1ccc(Oc2ccc(N(C[C@H](Nc3ccc(F)c(F)c3)C(=O)NO)S(C)(=O)=O)cc2)cc1 [Example 41, N-Hydroxy (2S)-2-(3,4-difluorophenyl)amino-3-{N-[4-(4-methylphenoxy)phenyl],N-methanesulfonylamino}propionamide] | < 5.00 | 6.90 | 8.59
CS(=O)(=O)N(C[C@@H](O)C(=O)NO)c1ccc(Oc2ccc(Cl)cc2)cc1 [Example 13, N-Hydroxy (2R)-2-hydroxy-3-{N-[4-(4-chlorophenoxy)phenyl],N-methanesulfonylamino}propionamide] | 5.01 and 5.27 | 7.62 and 7.35 | 8.25 and 8.15
Cc1ccc(Oc2ccc(N(C[C@H](NCc3ccccn3)C(=O)NO)S(C)(=O)=O)cc2)cc1 [Example 34, N-Hydroxy (2S)-3-{N-[4-(4-methylphenoxy)phenyl],N-methanesulfonylamino}-2-(pyridin2-yl)methylaminopropionamide] | < 5.00 | 7.08 | 7.64
Cc1ccc(Oc2ccc(N(C[C@H](Nc3ccc(Cl)cc3)C(=O)NO)S(C)(=O)=O)cc2)cc1 [Example 43, N-Hydroxy (2S)-2-(4-chlorophenyl)amino-3-{N-[4-(4-methylphenoxy)phenyl],N-methanesulfonylamino}propionamide] | < 5.00 | 6.47 | 7.66
Cc1ccc(Oc2ccc(N(CC(C)(O)C(=O)NO)S(C)(=O)=O)cc2)cc1 (stereo not drawn) [Example 6, N-Hydroxy 2-hydroxy-2-methyl-3-{N-[4-(4-methylphenoxy)phenyl],N-methanesulfonylamino}propionamide] | 5.25 | 7.72 and 7.65 and 7.53 and 7.78 and 7.84 | 8.13 and 8.11 and 8.32 and 8.66 and 8.45
Cc1ccc(Oc2ccc(N(C[C@H](NC3CCCC3)C(=O)NO)S(C)(=O)=O)cc2)cc1 [Example 37, N-Hydroxy (2S)-2-cyclopentylamino-3-{N-[4-(4-methylphenoxy)phenyl],N-methanesulfonylamino}propionamide] | < 5.00 | 8.00 | 8.77
Cc1ccc(Oc2ccc(N(C[C@H](O)C(=O)NO)S(=O)(=O)Cc3ccccc3)cc2)cc1 [Example 14, N-Hydroxy (2S)-2-hydroxy-3-{N-[4-(4-methylphenoxy)phenyl],N-phenylmethylsulfonylamino}propionamide] | < 5.00 | 6.24 | 7.03
Cc1ccc(Oc2ccc(N(C[C@H](NC(C)C)C(=O)NO)S(C)(=O)=O)cc2)cc1 [Example 18, N-Hydroxy (2S)-3-{N-[4-(4-methylphenoxy)phenyl],N-methanesulfonylamino}-2-[(2-propyl)amino]propionamide] | < 5.00 and 5.02 and 5.38 and 5.08 and 5.16 | 8.44 and 8.60 and 8.49 and 8.29 and 8.26 and 8.38 | 9.21 and 9.12 and 9.52 and 9.39 and 9.35
